Assay [1] concerns the target T1, human dopamine D4 receptor subtype (Homo sapiens, UniProt P21917).
T1 construct: expressed in transfected cells
T1 sequence (P21917 1-419): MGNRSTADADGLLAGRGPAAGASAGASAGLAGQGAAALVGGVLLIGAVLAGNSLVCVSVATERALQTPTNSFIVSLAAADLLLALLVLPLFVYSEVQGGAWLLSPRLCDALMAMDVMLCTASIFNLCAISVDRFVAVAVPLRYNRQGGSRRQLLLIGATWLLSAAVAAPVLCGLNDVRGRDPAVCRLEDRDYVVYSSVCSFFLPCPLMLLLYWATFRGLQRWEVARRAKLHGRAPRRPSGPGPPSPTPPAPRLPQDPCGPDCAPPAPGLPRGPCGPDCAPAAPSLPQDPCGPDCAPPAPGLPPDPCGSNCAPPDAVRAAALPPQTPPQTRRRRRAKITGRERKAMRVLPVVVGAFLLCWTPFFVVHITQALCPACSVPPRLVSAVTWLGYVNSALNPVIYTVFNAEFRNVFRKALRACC
Nature of the assay: D4 receptor binding, displacement of [3H]YM-09151-2. The note with it: Example XXXIX table. On the procedure:
Assay for D4 Receptor Binding Activity
Clonal cell lines expressing the human dopamine D4 receptor subtype were harvested in PBS and the cells centrifuged and the pellets stored at −80° C. until used in the binding assay. The pellets were resuspended and the cells lysed at 4° C. in 50 mM Tris pH 7.4 buffer containing 120 mM NaCl, 1 mM EDTA and 5 mM MgCl2. The homogenate is centrifuged at 48000× g for 10 minutes at 4° C. The resulting pellet is resuspended in fresh buffer and centrifuged again. After resuspension of the pellet in fresh buffer at […] aliquot is removed for protein determination. The remaining homogenate is centrifuged as above, the supernatant removed and the pellet stored at 4° C. until needed at which time it is resuspended to a final concentration of […] with 50 mM Tris buffer (pH 7.4) and 120 mM NaCl just prior to use. Incubations were carried out for 60 minutes at 25° C. in the presence of 0.1 nM [^3H] YM-09151-2. The incubation was terminated by rapid filtration through Whatman GF/C filters and rinsed with 2×4 ml washes of chilled 50 mM Tris (pH 7.4) and 120 mM NaCl. Non-specific binding was determined with […] spiperone and radioactivity determined by coiunting in an LKB beta counter. Binding parameters were determined by non-linear least squares regression analysis, from which the inhibition constant (Ki) could be calculated for each test compound. The binding characteristics of some examples of this patent are shown in Table 2 for the dopamine D4 binding assay.
Background: Displacement assays read how much labelled ligand stays bound in the presence of the test substance.

Assay [2] concerns the target T2, dopamine D4 receptors in rat hippocampus (Rattus norvegicus, UniProt P30729).
T2 construct: from tissue; host or cells: rat hippocampus
T2 sequence (P30729 1-387): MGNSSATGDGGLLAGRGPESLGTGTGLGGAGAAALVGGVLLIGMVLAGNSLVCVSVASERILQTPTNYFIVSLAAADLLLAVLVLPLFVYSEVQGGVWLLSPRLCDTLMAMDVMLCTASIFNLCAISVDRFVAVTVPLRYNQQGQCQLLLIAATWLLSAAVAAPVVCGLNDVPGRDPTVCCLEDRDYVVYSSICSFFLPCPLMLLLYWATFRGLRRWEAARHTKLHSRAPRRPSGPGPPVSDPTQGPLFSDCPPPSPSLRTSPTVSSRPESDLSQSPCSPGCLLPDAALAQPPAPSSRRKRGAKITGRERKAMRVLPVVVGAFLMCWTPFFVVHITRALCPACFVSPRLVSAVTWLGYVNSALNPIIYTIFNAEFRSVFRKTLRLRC
Description: Binding to D4 receptors in rat hippocampus.

Assay [3] concerns the target Dopamine Receptor D2 (Homo sapiens, UniProt P14416). Nature of the assay: D2 receptor binding activity (Example XXXIX). On the procedure: (§1) Striatial tissue is dissected from adult male Sprague Dawley rats or BHK 293 cells are harvested containing recombinantly produced D2 or D3 receptors. The sample is homogenized in 100 volumes (w/vol) of 0.05 M Tris HCl buffer at 4° C. and pH 7.4. The sample is then centrifuged at 30,000× g and resuspended and rehomogenized. The sample is then centrifuged as described and the final tissue sample is frozen until use. The tissue is resuspended 1:20 (wt/vol) in 0.05 M Tris HCl buffer containing 100 mM NaCl.
(§2) Incubations are carried out at […] and contain 0.5 ml of tissue sample, 0.5 nM ^3H-raclopride and the compound of interest in a total incubation volume of 1.0 ml.
(§3) The following compounds were assayed for D2, D3, and D4 receptor binding activity using the assays described above.

Assay [4] deals with T3, dopamine D4 receptors in human hippocampus (Homo sapiens, UniProt P21917).
T3 construct: from tissue; host or cells: human hippocampus
T3 sequence (P21917 1-419): T1 sequence (P21917 1-419)
Description: Binding to D4 receptors in human hippocampus.

The target in assay [5] is T4, Dopamine Receptor D3 (Homo sapiens, UniProt P35462).
T4 construct: expressed in transfected cells; host or cells: BHK 293 cells (so in the source)
Description: D3 receptor binding activity (Example XXXIX). On the procedure: as §1, §2, §3

Assay [6] deals with male Sprague Dawley rats. Description: Step-down passive avoidance task. The assay is classed as in vivo, rat. On the procedure:
Method Non-naive male Sprague Dawley rats (SASCO St Louis) weighing between […], were housed in groups of three in a temperature and humidity controlled vivarium having a 12 hour light/dark cycle. Animals had ad lib access to food and water.
Clozapine was dissolved in 50% PEG and administered in a dose range of from 0.25 to 2 mg/kg. Both drugs were administered intravenously 5 minutes prior to training in both learning tasks
A step-down passive avoidance platform 4 (cm)×7(cm) was placed in the center of an electrified gris floor, which was contained within a large (45×45×50 cm) white translucent plexiglas enclosure having a closable lid. The bars of the grip were spaced 1.5 cm apart and were wired to a BRS-LVE shock generator/scrambler which was set to deliver a 2 mA 6 second shock. Four passive avoidance boxes were automated by customer software (Labview) and commercial interface modules (National Instruments) connected to a computer The timing and delivery of the shock as well as the latency to steo down and the number of trials taken to reach criterion during training was under the control of the computer. […]
Testing was conduced approximately 24 hours after training, Drug-free animals were placed on the platform in the box in which they were trained and the latency to step down onto the unshocked floor was recorded for one trial. […]

Entries after “also recorded” stand apart in the source; their conditions may differ. Where a name gives a salt, the structure may show the parent alone.

Chain of Dopamine Receptor D2 (P14416 whole entry): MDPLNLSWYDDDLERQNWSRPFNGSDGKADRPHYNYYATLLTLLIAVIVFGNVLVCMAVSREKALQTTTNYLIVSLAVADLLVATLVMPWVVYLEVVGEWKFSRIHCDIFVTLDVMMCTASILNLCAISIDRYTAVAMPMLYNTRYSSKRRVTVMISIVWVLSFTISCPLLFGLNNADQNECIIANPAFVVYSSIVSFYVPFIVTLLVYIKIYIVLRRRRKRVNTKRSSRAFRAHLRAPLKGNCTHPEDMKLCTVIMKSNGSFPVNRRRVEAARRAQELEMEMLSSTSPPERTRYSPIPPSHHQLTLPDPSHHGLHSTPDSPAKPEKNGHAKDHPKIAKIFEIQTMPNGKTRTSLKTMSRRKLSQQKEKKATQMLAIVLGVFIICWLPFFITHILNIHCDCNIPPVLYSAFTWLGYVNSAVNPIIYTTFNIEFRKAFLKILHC
T4 sequence (P35462 whole entry): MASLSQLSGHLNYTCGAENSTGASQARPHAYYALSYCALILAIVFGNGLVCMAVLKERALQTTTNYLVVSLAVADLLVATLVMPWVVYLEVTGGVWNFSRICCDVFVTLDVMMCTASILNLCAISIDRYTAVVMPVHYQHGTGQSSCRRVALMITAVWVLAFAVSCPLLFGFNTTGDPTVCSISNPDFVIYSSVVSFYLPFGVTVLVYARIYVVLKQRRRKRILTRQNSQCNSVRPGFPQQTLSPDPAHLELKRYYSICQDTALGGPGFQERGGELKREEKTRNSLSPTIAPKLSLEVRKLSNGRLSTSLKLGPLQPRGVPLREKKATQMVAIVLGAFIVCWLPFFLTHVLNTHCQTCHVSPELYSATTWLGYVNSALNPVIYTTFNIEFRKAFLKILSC

The Ki is a dissociation constant, usually derived from enzyme kinetics or from competition with a known ligand. High values mean a looser hold on the target, low ones a stronger hold on the target. `c1ccc(-c2nc(CN3CCN(c4ccccn4)CC3)c[nH]2)cc1` [Compound 24, 2-Phenyl-4(5)-[(4-(2-pyridyl)-piperazin-1-yl)-methyl]-imidazole dihydrochloride]: the Ki in assay [1] was found to be 0.00085 µM; in assay [3], 1.03 µM. Also, the “antagonist binding to D4 receptors in hippocampus” value (“antagonist binding to D4 receptors” below) in assay [2] and in assay [4] was “antagonists binding to dopamine D4 receptors” each time.

For the compound `c1ccc(-c2ncc(CN3CCN(c4ccccc4)CC3)[nH]2)cc1` [Compound 45, 2-Phenyl-4(5)-[(4-phenyl-piperazin-1-yl)methyl]imidazole], the Ki in assay [1] is 0.005 µM; in assay [5] it was 0.169 µM; in assay [3] it was 0.239 µM. In addition, the “antagonist binding to D4 receptors” value in assay [2] and in assay [4] was “antagonists binding to dopamine D4 receptors” throughout.

For `c1ccc(-c2ncc(CN3CCN(c4ncccn4)CC3)[nH]2)cc1` [Compound 23, 2-Phenyl-4(5)-[(4-(2-pyrimidinyl)-piperazin-1-yl)-methyl]-imidazole dihydrochloride], the Ki in assay [1] came to 0.0027 µM; in assay [5], 8.2 µM. Besides, the “antagonist binding to D4 receptors” value in assay [2] and in assay [4] was “antagonists binding to dopamine D4 receptors” in each case. Further, in assay [6] (0.25 mg/kg i.v. 5 minutes prior to training, retest about 24 hours later, dihydrochloride, 0.25 mg/kg), the “passive avoidance retention (time on platform at retest) vs vehicle” value is given as “significant improvement in memory; also recorded: significantly longer time”. The “passive avoidance acquisition vs vehicle” value in assay [6] (0.03-1.0 mg/kg i.v. 5 minutes prior to training) is “no significant differences for acquisition”.

(Values after patent publication US20030018025A1, “Certain 4-aminomethyl-2-substituted imidazole derivatives and 2-aminomethyl-4-substituted imidazole derivatives: new classes of dopamine receptor subtype specific ligands” (Neurogen Corporation, Corporation of the State of Delaware, priority 1995, published 2003).)
